According to PubChem BioAssay (NCI):
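A five-concentration, 48-hour dose response in 96-well plates underlies each endpoint, interpolated linearly between surrounding concentrations. Definition used: TGI = concentration required for complete inhibition of growth.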

Legend:
Test in all cases: growth of human tumour cells (NCI), 48 h
A498 renal = system: A498 renal
COLO 205 colon = system: COLO 205 colon
HL-60(TB) leukemia = system: HL-60(TB) leukemia
KM12 colon = system: KM12 colon
MCF7 breast = system: MCF7 breast
NCI-H23 lung = system: NCI-H23 lung
SF-268 CNS = system: SF-268 CNS
SK-MEL-2 melanoma = system: SK-MEL-2 melanoma
SK-MEL-5 melanoma = system: SK-MEL-5 melanoma
SR leukemia = system: SR leukemia
U251 CNS = system: U251 CNS

SMILES | TGI (A498 renal) [µM] | TGI (COLO 205 colon) [µM] | TGI (HL-60(TB) leukemia) [µM] | TGI (KM12 colon) [µM] | TGI (MCF7 breast) [µM] | TGI (NCI-H23 lung) [µM] | TGI (SF-268 CNS) [µM] | TGI (SK-MEL-2 melanoma) [µM] | TGI (SK-MEL-5 melanoma) [µM] | TGI (SR leukemia) [µM] | TGI (U251 CNS) [µM]
O=CC1C[C@@H](N2C(=O)O[C@@H](c3ccccc3)[C@H]2c2ccccc2)[C@@H]1COCc1ccccc1 (stereo partly drawn) | 49.2 | 42 | 56.7 | > 100 | 55.1 | 33.4 | 37.1 | 30.8 | 29.1 | 45.7 | 30.1
O=Cc1ccc(-c2cccc([N+](=O)[O-])c2)s1 | 53.4 | > 100 | > 100 | > 100 | > 100 | > 100 | > 100 | > 100 | > 100 | > 100 | > 100
CCSC(=O)/C=C1\CN(C(=O)OC(C)(C)C)C1C(=O)OC(C)(C)C (stereo not drawn) | 23.9 | 5.48 | 4.42 | 12.3 | 16.8 | 8.7 | 21.6 | 18.4 | 12.6 | 2.48 | 19.2
O/N=C1\CCc2cc3c(cc21)CCC3 | > 100 | > 100 | > 100 | > 100 | > 100 | > 100 | > 100 | > 100 | > 100 | > 100 | > 100
Nc1ncc(CN2CCOCC2)c(-c2ccccc2O)n1 | > 100 | > 100 | > 100 | > 100 | > 100 | > 100 | > 100 | > 100 | > 100 | > 100 | > 100
CN1CCN(CCCCN2c3ccccc3Sc3ccc(N=[N+]=[N-])cc32)CC1 | 29.9 | 3.51 | 3.69 | 20.8 | 9.75 | 35.7 | 28.2 | 12.9 | 4.62 | 7.07 | 16.9
O=C1CCc2cc3c(cc21)CC1(Cc2cc4c(cc2C1)CCCC4)C3 | > 100 | > 100 | > 100 | > 100 | > 100 | > 100 | > 100 | > 100 | > 100 | 47.7 | > 100
CCCCCCCCCC1CC(=O)NCC(=O)NC(C(C)C)C(=O)NC(CC(C)C)C(=O)NC(C)C(=O)NC(C(C)C)C(=O)O1 (stereo not drawn) | > 55.4 | > 100 | > 100 | 33.9 | > 100 | 42.2 | 16.1 | > 65.8 | > 61.6 | > 92.4 | 29.7
C1=NCCNCCN=Cc2ccccc2OCc2cccc(n2)COc2ccccc21 | > 100 | > 100 | 6.84 | > 62.2 | > 56.9 | > 52.9 | > 96 | 99.8 | > 49.5 | > 100 | > 39.7
O=C(OC(/C=C/c1ccccc1)P1(=O)N(Cc2ccccc2)[C@@H]2CCCC[C@H]2N1Cc1ccccc1)c1ccccc1 (stereo partly drawn) | > 100 | 4.75 | 7.43 | > 100 | > 100 | > 31.5 | > 100 | 5.67 | 11.4 | 15.2 | > 100
O=[N+]([O-])c1ccc(NC(=S)Nc2ccccn2)cc1 | 45.6 | > 94.5 | > 73.7 | > 55.6 | > 100 | > 100 | > 91.7 | > 100 | > 100 | > 100 | > 100
Cc1ccc(/C(O)=C/c2nc3ccccc3[nH]c2=O)c(C)c1 | 9.12 | > 100 | > 100 | > 61.5 | > 100 | > 65 | 25 | > 80.4 | > 92.1 | > 100 | 36.7
C/C1=C\CC/C(C)=C/C=C(/C(C)C)CC/C(C(=O)O)=C/CC1 | 75.1 | 43.2 | > 100 | > 100 | > 100 | > 100 | > 100 | 62.2 | > 100 | > 100 | > 100
COC(=O)/C=C(/C(=O)OC)c1c(C)cc2c(C)cc(C)cc(C)c1-2 | 70.3 | 22.4 | > 100 | > 58.2 | 36.6 | > 81.1 | > 65.7 | > 77.1 | 23.5 | > 100 | 25.5
[O-]c1c[n+](CC[n+]2cc([O-])on2)no1 | > 100 | > 100 | > 100 | > 100 | > 100 | > 100 | > 100 | > 100 | > 100 | > 100 | > 100
COc1ccc(/C=C2\CN(C)CC3C2=NC(=S)NC3c2ccc(OC)cc2)cc1 (stereo not drawn) | 26.3 | > 39.3 | 14.8 | > 65.8 | > 100 | > 94.1 | > 100 | > 64.8 | > 100 | > 100 | > 52.6
COC(=O)CCC(C)C1CCC2C3CCC4CC5CCC4(C)C3(O5)C(Br)C(Br)C12C (stereo not drawn) | > 100 | > 100 | > 100 | > 100 | > 100 | > 100 | > 100 | > 100 | > 100 | > 100 | > 100
Clc1ccc(-c2nc3ccc(C45CC6CC(CC(C6)C4)C5)cc3[nH]2)cc1 | > 100 | 24.3 | > 100 | > 100 | > 100 | > 100 | > 100 | > 100 | 60.4 | > 100 | > 100
